Patent publication US9597407B2, “Targeted antimicrobial moieties” (C3 Jian, Inc., priority 2009, dated 2017)
Entries after “also recorded” stand apart in the source; their conditions may differ. Square brackets hold non-standard residues; d marks the D form. Ends that are not written are not given here. Aib = CC(C)(N)C(=O)O

Key:
bacteria = test: Binding of targeting peptides to microorganisms (Table 3); settings: preferably 1x PBS
microorganisms = test: Morphology, biofilm and growth disruption by peptides (Table 5); type: cell-based; set-up: key: A: Peptide aggregates; B: Less hyphal formation; Clumps; Diffuse clumps and small polyps; F: Diffuse growth; H: Thin; I: Growth inhibition; Microcolony formation; Rippled; Small polyps; Thick; W: Halo formation on top, microlonies on bottom
From the text: In certain embodiments peptides that induce alterations in phenotype or other biological activities can also be used as antimicrobial effector moieties.

[1] = peptide binding in aqueous buffers that varied depending on peptide solubility
[2] = microorganism bound by the targeting peptide, binding in aqueous buffers chosen by peptide solubility
[3] = peptide binding in aqueous buffers varied by peptide solubility

With “1T-199 (RAGRIKKLSQKEAEPFEN; Peptide with targeting and/or antimicrobial activity) [Peptide 1T-199]” the “Target(s)” value (bacteria; microorganism the targeting peptide binds, binding in aqueous buffers that varied with peptide solubility) was “S. sanguinis”.

With “PF-C003 (FCSVDHDVITIAADHVKQGAEA; Peptide with targeting and/or antimicrobial activity)” the “Target(s) (microorganism bound by the targeting peptide)” value (bacteria; [1]) was “A. naeslundii; also recorded: P. gingivalis; also recorded: S. mutans”.

With “PF-496 (EVTKRLVALAQQQLRG; Peptide with targeting and/or antimicrobial activity)” the “Target(s) (microorganisms bound by the targeting peptide)” value (bacteria; [1]) was “S. mutans; also recorded: E. coli”.

For “PF-782 (TGPRRGIDLTSNRALSEVLDEGLELNSRK; Peptide with targeting and/or antimicrobial activity)”, the “Target(s) (microorganism bound by the targeting peptide)” value (bacteria; [1]) was “Mycobacteria spp”.

For “PF-S018 (GMPQIPRLRI; Peptide with targeting and/or antimicrobial activity)”, the “Target(s) (microorganism bound by the targeting peptide)” value (bacteria; [1]) was “S. epidermidis and M. luteus and C. albicans and MRSA and E. faecalis and C. jeikeium and C. jejuni”.

In the case of “PF-279 (SHIGFISISACLAVLLGIARLFVWTWVKFFA; Peptide with targeting and/or antimicrobial activity)”, the “Target(s)” value (bacteria; [2]) is reported as “S. mutans; also recorded: S. epidermidis; also recorded: M. luteus; also recorded: E. coli; also recorded: P. aeruginosa; also recorded: A. baumannii”.

With “HIKETR (Peptide with targeting and/or antimicrobial activity) [PF-222]” the “Target(s)” value (bacteria; [2]) was “S. epidermidis”.

With “PF-794 (NLYFENQGN; Peptide with targeting and/or antimicrobial activity)” the “Target(s) (microorganism bound by the targeting peptide)” value (bacteria; [1]) was “S. mutans”.

With “1T-110 (LAAKTAVCVGRAFM; Peptide with targeting and/or antimicrobial activity) [Peptide 1T-110]” the “Target(s) (microorganism bound by the targeting peptide)” value (bacteria; [3]) was “A. naeslundii; also recorded: P. gingivalis; also recorded: S. epidermidis; also recorded: S. gordonii; also recorded: S. mitis; also recorded: S. mutans; also recorded: S. oralis; also recorded: S. sanguinis”.

In the case of “PF-223 (VKFCIECQTKLERKRR; Peptide with targeting and/or antimicrobial activity)”, the “Target(s)” value (bacteria; [2]) is reported as “S. epidermidis; also recorded: M. luteus; also recorded: A. baumannii”.

In the case of “PF-174 (RGGDSPARRRPGLAGPGGPG; Peptide with targeting and/or antimicrobial activity)”, the “Target(s)” value (bacteria; [2]) is reported as “S. epidermidis; also recorded: P. aeruginosa; also recorded: C. jeikeium”.

“1T-82 (FGVGVGIALFMAGYAIGKDLRKKFGKSC; Peptide with targeting and/or antimicrobial activity) [Peptide 1T-82]” was tested, and the “Target(s) (microorganism bound by the targeting peptide)” value (bacteria; [3]) was “S. pneumoniae”.

“PF-104 (ERTAVNDLWI; Peptide with targeting and/or antimicrobial activity)” was tested, and the “Target(s)” value (bacteria; [2]) was “MRSA and C. jeikeium”.

“PF-C068 (LNLFASI; Peptide with targeting and/or antimicrobial activity)” was tested, and the “Target(s) (microorganism bound by the targeting peptide)” value (bacteria; [1]) was “A. naeslundii; also recorded: F. nucleatum; also recorded: S. mutans”.

In the case of “PF-229 (DPILIQIGFTRFALRKAEAEKIEIQVEEGVPA; Peptide with targeting and/or antimicrobial activity)”, the “Target(s)” value (bacteria; [2]) is reported as “S. epidermidis; also recorded: M. luteus; also recorded: P. aeruginosa; also recorded: A. baumannii”.

With “1T-39 (FGFCVWMYQLLAGPPGPPA; Peptide with targeting and/or antimicrobial activity) [Peptide 1T-39]” the “Target(s) (microorganism bound by the targeting peptide)” value (bacteria; [3]) was “S. mutans; also recorded: P. aeruginosa”.

With “PF-359 (MTVMEDPGSEQRNKIQSPMKGEDFSALFGR; Peptide with targeting and/or antimicrobial activity)” the “Target(s)” value (bacteria; [2]) was “S. epidermidis and B. fragilis and P. aeruginosa and C. albicans and MRSA and E. faecalis and C. jeikeium”.

In the case of “1T-38 (VMFVLTRGRSPRPMIPAY; Peptide with targeting and/or antimicrobial activity) [Peptide 1T-38]”, the “Target(s) (microorganism bound by the targeting peptide)” value (bacteria; [3]) is reported as “S. mutans; also recorded: S. aereus; also recorded: S. epidermidis; also recorded: C. jeikeium; also recorded: C. xerosis; also recorded: C. striatum; also recorded: P. aeruginosa”.

For “PF-793 (YTQ[Aib]NNASAYAMLLTNKDTVP; ends and bridges not checked)”, the “Target(s) (microorganism bound by the targeting peptide)” value (bacteria; [1]) was “S. mutans”.

MIHLTKQNTMEALHFIKQFYDMFFILNFNV [PF-040] was tested, and the “Organism, effect” value (microorganisms; B. subtilis) was “B. subtilis (D)”, the “Organism, effect” value (microorganisms; C. jeikeium) was “C. jeikeium (D)” and the “Organism, effect” value (microorganisms; C. jejuni) was “C. jejuni (D)”. For the same substance, the “Organism, effect” value (microorganisms; E. coli) was “E. coli (C)”, the “Organism, effect” value (microorganisms; M. luteus) was “M. luteus (D)” and the “Organism, effect” value (microorganisms; MRSA) was “MRSA (D)”. The “Organism, effect” value (microorganisms; P. mirabilis) was “P. mirabilis (C)”, the “Organism, effect” value (microorganisms; S. epidermidis) was “S. epidermidis (D)” and the “Organism, effect” value (microorganisms; S. mutans) was “S. mutans (F)”. For the same substance, the “Organism, effect” value (microorganisms; S. pneumoniae) was “S. pneumoniae (D)”.

In the case of “PF-157 (HTAVVWLAGVSGCVALSHCEPA; Peptide with targeting and/or antimicrobial activity)”, the “Organism, effect” value (microorganisms; S. epidermidis) is reported as “S. epidermidis (M)”.

In the case of MRFGSLALVAYDSAIKHSWPRPSSVRRLRM [PF-672], the “Organism, effect (morphology, biofilm and growth disruption)” value (microorganisms; B. subtilis) is reported as “B. subtilis (I)”, the “Organism, effect (morphology, biofilm and growth disruption)” value (microorganisms; C. albicans) is reported as “C. albicans (I)” and the “Organism, effect (morphology, biofilm and growth disruption)” value (microorganisms; C. jeikeium) is reported as “C. jeikeium (R)”. The “Organism, effect (morphology, biofilm and growth disruption)” value (microorganisms; E. faecalis) was “E. faecalis (I)”, the “Organism, effect (morphology, biofilm and growth disruption)” value (microorganisms; MRSA) was “MRSA (I)” and the “Organism, effect (morphology, biofilm and growth disruption)” value (microorganisms; S. epidermidis) was “S. epidermidis (I)”. For the same substance, the “Organism, effect (morphology, biofilm and growth disruption)” value (microorganisms; S. pneumoniae) was “S. pneumoniae (I)”.

In the case of “PF-455 (MARNDDDIKKIKGTLGQSPEVYGERKLPYT; Peptide with targeting and/or antimicrobial activity)”, the “Organism, effect (morphology, biofilm and growth disruption)” value (microorganisms; S. pneumoniae) is reported as “S. pneumoniae (A)”.

In the case of “PF-536 (MEPIPHIMIIANQIGIIIEKA; Peptide with targeting and/or antimicrobial activity)”, the “Organism, effect (morphology, biofilm and growth disruption)” value (microorganisms; E. coli) is reported as “E. coli (R)”, the “Organism, effect (morphology, biofilm and growth disruption)” value (microorganisms; E. faecalis) is reported as “E. faecalis (C)” and the “Organism, effect (morphology, biofilm and growth disruption)” value (microorganisms; MRSA) is reported as “MRSA (C)”. The “Organism, effect (morphology, biofilm and growth disruption)” value (microorganisms; P. aeruginosa) was “P. aeruginosa (H)”, the “Organism, effect (morphology, biofilm and growth disruption)” value (microorganisms; S. epidermidis) was “S. epidermidis (C)” and the “Organism, effect (morphology, biofilm and growth disruption)” value (microorganisms; S. pneumoniae) was “S. pneumoniae (M)”.

“PF-541 (RRNLNSPNIKTRKRALKIIKQHQRSK; Peptide with targeting and/or antimicrobial activity)” was tested, and the “Organism, effect (morphology, biofilm and growth disruption)” value (microorganisms; E. coli) was “E. coli (H)” and the “Organism, effect (morphology, biofilm and growth disruption)” value (microorganisms; S. pneumoniae) was “S. pneumoniae (H)”.

In the case of FQKPFTGEEVEDFQDDDEIPTII [PF-437], the “Organism, effect (morphology, biofilm and growth disruption)” value (microorganisms; S. pneumoniae) is reported as “S. pneumoniae (I)”.

In the case of MGIIAGIIKVIKSLIEQFTGK [PF-007], the “Organism, effect” value (microorganisms; E. coli) is reported as “E. coli (A)”, the “Organism, effect” value (microorganisms; E. faecalis) is reported as “E. faecalis (A)” and the “Organism, effect” value (microorganisms; M. luteus) is reported as “M. luteus (A)”. The “Organism, effect” value (microorganisms; MRSA) was “MRSA (R)” and the “Organism, effect” value (microorganisms; S. epidermidis) was “S. epidermidis (A)”.

For “PF-004 (chain 1 ARLSKAIIIAVIVVYHLDVRGLF; chain 2 ARLSKAIIIAVIVVYHLDVRGLF; Peptide with targeting and/or antimicrobial activity)”, the “Organism, effect” value (microorganisms; C. jeikeium) was “C. jeikeium (A)”, the “Organism, effect” value (microorganisms; M. luteus) was “M. luteus (A)” and the “Organism, effect” value (microorganisms; MRSA) was “MRSA (R)”. The “Organism, effect” value (microorganisms; S. epidermidis) was “S. epidermidis (A)”.

In the case of KFQGEFTNIGQSYIVSASHMSTSLNTGK [PF-583], the “Organism, effect (morphology, biofilm and growth disruption)” value (microorganisms; MRSA) is reported as “MRSA (I)”, the “Organism, effect (morphology, biofilm and growth disruption)” value (microorganisms; S. epidermidis) is reported as “S. epidermidis (I)” and the “Organism, effect (morphology, biofilm and growth disruption)” value (microorganisms; S. mutans) is reported as “S. mutans (F)”. The “Organism, effect (morphology, biofilm and growth disruption)” value (microorganisms; S. pneumoniae) was “S. pneumoniae (D)”.

With DLLKSLLGQDGAKNDEIIEFIKIIMEK [PF-591] the “Organism, effect (morphology, biofilm and growth disruption)” value (microorganisms; C. jejuni) was “C. jejuni (C)”, the “Organism, effect (morphology, biofilm and growth disruption)” value (microorganisms; E. faecalis) was “E. faecalis (A)” and the “Organism, effect (morphology, biofilm and growth disruption)” value (microorganisms; S. pneumoniae) was “S. pneumoniae (R)”.

“PF-125 (YVVGALVILAVAGLIYSMLRKA; Peptide with targeting and/or antimicrobial activity)” was tested, and the “Organism, effect” value (microorganisms; M. luteus) was “M. luteus (C)” and the “Organism, effect” value (microorganisms; S. epidermidis) was “S. epidermidis (D)”.

For “PF-561 (ESLEADVQAELDTEAAKYPALPASF; Peptide with targeting and/or antimicrobial activity)”, the “Organism, effect (morphology, biofilm and growth disruption)” value (microorganisms; B. subtilis) was “B. subtilis (D)” and the “Organism, effect (morphology, biofilm and growth disruption)” value (microorganisms; MRSA) was “MRSA (M)”.

GIVLIGLKLIPLLANVLR [PF-322] was tested, and the “Organism, effect” value (microorganisms; B. subtilis) was “B. subtilis (H)” and the “Organism, effect” value (microorganisms; S. epidermidis) was “S. epidermidis (C)”.

In the case of KFSDQIDKGQDALKDKLGDL [PF-525], the “Organism, effect (morphology, biofilm and growth disruption)” value (microorganisms; S. pneumoniae) is reported as “S. pneumoniae (H)”.

With “PF-310 (GVALIGTILVPLLSGLFG; Peptide with targeting and/or antimicrobial activity)” the “Organism, effect” value (microorganisms; S. epidermidis) was “S. epidermidis (C)”.

For “PF-399 (FPIISALLGAIICIAIYSFIVNRKA; Peptide with targeting and/or antimicrobial activity)”, the “Organism, effect” value (microorganisms; E. coli) was “E. coli (C)”, the “Organism, effect” value (microorganisms; E. faecalis) was “E. faecalis (C)” and the “Organism, effect” value (microorganisms; MRSA) was “MRSA (C)”. For the same substance, the “Organism, effect” value (microorganisms; S. epidermidis) was “S. epidermidis (C)”.

With “PF-592 (IMKNYKYFKLFIVKYALF; Peptide with targeting and/or antimicrobial activity)” the “Organism, effect (morphology, biofilm and growth disruption)” value (microorganisms; C. jejuni) was “C. jejuni (S)”, the “Organism, effect (morphology, biofilm and growth disruption)” value (microorganisms; E. coli) was “E. coli (C)” and the “Organism, effect (morphology, biofilm and growth disruption)” value (microorganisms; E. faecalis) was “E. faecalis (D)”. The “Organism, effect (morphology, biofilm and growth disruption)” value (microorganisms; MRSA) was “MRSA (D)”, the “Organism, effect (morphology, biofilm and growth disruption)” value (microorganisms; S. epidermidis) was “S. epidermidis (M)” and the “Organism, effect (morphology, biofilm and growth disruption)” value (microorganisms; S. pneumoniae) was “S. pneumoniae (D)”.

In the case of “PF-303 (EYPWSWISEPWPWDKSFYK; Peptide with targeting and/or antimicrobial activity)”, the “Organism, effect” value (microorganisms; B. subtilis) is reported as “B. subtilis (C)”.

“PF-407 (KPKNKKEKTVISYEKLLSMY; Peptide with targeting and/or antimicrobial activity)” was tested, and the “Organism, effect” value (microorganisms; E. faecalis) was “E. faecalis (R)”, the “Organism, effect” value (microorganisms; MRSA) was “MRSA (C)” and the “Organism, effect” value (microorganisms; S. epidermidis) was “S. epidermidis (M)”. The “Organism, effect” value (microorganisms; S. pneumoniae) was “S. pneumoniae (R)”.
